Measured values as given in ChEMBL document CHEMBL3885881, “DrugMatrix”.

Species: Rattus norvegicus
Assay: DrugMatrix - Regimen: Daily Repeat
Format: toxicity, organism-based, Sprague-Dawley
Parameters: regimen Daily Repeat, gender Male, age 6-8 weeks
Conditions: in vivo, po, route oral GAVAGE, vehicle .5 % CMC; for ABSOLUTE BASOPHIL / ABSOLUTE EOSINOPHIL / ABSOLUTE LYMPHOCYTE / ABSOLUTE MONOCYTE / ABSOLUTE SEGMENTED NEUTROPHIL / BASOPHIL / EOSINOPHIL / ERYTHROCYTE COUNT / HEMATOCRIT / HEMOGLOBIN / LEUKOCYTE COUNT / LYMPHOCYTE / MEAN CORPUSCULAR HEMOGLOBIN / MEAN CORPUSCULAR HEMOGLOBIN CONCENTRATION / MEAN CORPUSCULAR VOLUME / MONOCYTE / NEUTROPHIL / NUCLEATED RED BLOOD CELLS / PLATELET COUNT: tissue Blood; for ALANINE AMINOTRANSFERASE / ALBUMIN / ALKALINE PHOSPHATASE / ASPARTATE AMINOTRANSFERASE / BLOOD UREA NITROGEN / CARBON DIOXIDE / CHLORIDE / CHOLESTEROL / CREATINE PHOSPHOKINASE / CREATININE / GLUCOSE / LACTATE DEHYDROGENASE / LIPASE / PHOSPHORUS / POTASSIUM / SODIUM / TOTAL BILIRUBIN / TOTAL PROTEIN / URIC ACID: tissue Plasma
[1] = 0 mg/kg, 72 h, dose level Control, time 3 day
[2] = 0 mg/kg, 120 h, dose level Control, time 5 day
[3] = 25 mg/kg, 72 h, dose level Low, time 3 day

Structure (SMILES): C[C@](O)(CS(=O)(=O)c1ccc(F)cc1)C(=O)Nc1ccc(C#N)c(C(F)(F)F)c1 [(R)-BICALUTAMIDE]
- ABSOLUTE BASOPHIL [1]: 0 CELLS/uL
- ABSOLUTE EOSINOPHIL [1]: 171.33 CELLS/uL
- ABSOLUTE LYMPHOCYTE [1]: 13776.5 CELLS/uL
- ABSOLUTE MONOCYTE [1]: 180.83 CELLS/uL
- ABSOLUTE SEGMENTED NEUTROPHIL [1]: 1121.33 CELLS/uL
- BASOPHIL [1]: 0%
- EOSINOPHIL [1]: 1%
- ERYTHROCYTE COUNT [1]: 5.56 x10E6/uL
- HEMATOCRIT [1]: 34.75%
- HEMOGLOBIN [1]: 13.68 G/DL
- LEUKOCYTE COUNT [1]: 15.25 x10E3/uL
- LYMPHOCYTE [1]: 90.17%
- MEAN CORPUSCULAR HEMOGLOBIN [1]: 24.6 pg
- MEAN CORPUSCULAR HEMOGLOBIN CONCENTRATION [1]: 39.4 G/DL
- MEAN CORPUSCULAR VOLUME [1]: 62.48 fL
- MONOCYTE [1]: 1.17%
- NEUTROPHIL [1]: 7.67%
- NUCLEATED RED BLOOD CELLS [1]: 0 /100WBC
- PLATELET COUNT [1]: 1342 x10E3/uL
- ALANINE AMINOTRANSFERASE [1]: 49.67 u/L
- ALBUMIN [1]: 4.15 G/DL
- ALKALINE PHOSPHATASE [1]: 346.83 u/L
- ASPARTATE AMINOTRANSFERASE [1]: 108.17 u/L
- BLOOD UREA NITROGEN [1]: 17.33 mg/dL
- CARBON DIOXIDE [1]: 25 mmol/L
- CHLORIDE [1]: 100.83 MEQ/L
- CHOLESTEROL [1]: 66.83 mg/dL
- CREATINE PHOSPHOKINASE [1]: 788 u/L
- CREATININE [1]: 0.18 mg/dL
- GLUCOSE [1]: 151.67 mg/dL
- LACTATE DEHYDROGENASE [1]: 982.5 u/L
- LIPASE [1]: 10.33 u/L
- PHOSPHORUS [1]: 11.23 mg/dL
- POTASSIUM [1]: 6.37 MEQ/L
- SODIUM [1]: 141.02 MEQ/L
- TOTAL BILIRUBIN [1]: 0.18 mg/dL
- TOTAL PROTEIN [1]: 5.9 G/DL
- URIC ACID [1]: 1.8 mg/dL
- ABSOLUTE BASOPHIL [2]: 0 CELLS/uL
- ABSOLUTE EOSINOPHIL [2]: 69 CELLS/uL
- ABSOLUTE LYMPHOCYTE [2]: 13632.83 CELLS/uL
- ABSOLUTE MONOCYTE [2]: 139.83 CELLS/uL
- ABSOLUTE SEGMENTED NEUTROPHIL [2]: 1225 CELLS/uL
- BASOPHIL [2]: 0%
- EOSINOPHIL [2]: 0.33%
- ERYTHROCYTE COUNT [2]: 5.52 x10E6/uL
- HEMATOCRIT [2]: 33.98%
- HEMOGLOBIN [2]: 13.22 G/DL
- LEUKOCYTE COUNT [2]: 15.07 x10E3/uL
- LYMPHOCYTE [2]: 90.83%
- MEAN CORPUSCULAR HEMOGLOBIN [2]: 23.95 pg
- MEAN CORPUSCULAR HEMOGLOBIN CONCENTRATION [2]: 38.9 G/DL
- MEAN CORPUSCULAR VOLUME [2]: 61.53 fL
- MONOCYTE [2]: 0.83%
- NEUTROPHIL [2]: 8%
- NUCLEATED RED BLOOD CELLS [2]: 0 /100WBC
- PLATELET COUNT [2]: 1196 x10E3/uL
- ALANINE AMINOTRANSFERASE [2]: 49.17 u/L
- ALBUMIN [2]: 4.2 G/DL
- ALKALINE PHOSPHATASE [2]: 352.33 u/L
- ASPARTATE AMINOTRANSFERASE [2]: 89.67 u/L
- BLOOD UREA NITROGEN [2]: 18 mg/dL
- CARBON DIOXIDE [2]: 27.67 mmol/L
- CHLORIDE [2]: 101 MEQ/L
- CHOLESTEROL [2]: 72.83 mg/dL
- CREATINE PHOSPHOKINASE [2]: 417.5 u/L
- CREATININE [2]: 0.18 mg/dL
- GLUCOSE [2]: 150.5 mg/dL
- LACTATE DEHYDROGENASE [2]: 517.33 u/L
- LIPASE [2]: 9 u/L
- PHOSPHORUS [2]: 11.87 mg/dL
- POTASSIUM [2]: 6.57 MEQ/L
- SODIUM [2]: 143.62 MEQ/L
- TOTAL BILIRUBIN [2]: 0.2 mg/dL
- TOTAL PROTEIN [2]: 6.08 G/DL
- URIC ACID [2]: 1.45 mg/dL
- ABSOLUTE BASOPHIL [3]: 0 CELLS/uL
- ABSOLUTE EOSINOPHIL [3]: 0 CELLS/uL
- ABSOLUTE LYMPHOCYTE [3]: 11565 CELLS/uL
- ABSOLUTE MONOCYTE [3]: 208.33 CELLS/uL
- ABSOLUTE SEGMENTED NEUTROPHIL [3]: 926.67 CELLS/uL
- BASOPHIL [3]: 0%
- EOSINOPHIL [3]: 0%
- ERYTHROCYTE COUNT [3]: 5.66 x10E6/uL
- HEMATOCRIT [3]: 35.2%
- HEMOGLOBIN [3]: 13.9 G/DL
- LEUKOCYTE COUNT [3]: 12.7 x10E3/uL
- LYMPHOCYTE [3]: 91%
- MEAN CORPUSCULAR HEMOGLOBIN [3]: 24.57 pg
- MEAN CORPUSCULAR HEMOGLOBIN CONCENTRATION [3]: 39.47 G/DL
- MEAN CORPUSCULAR VOLUME [3]: 62.23 fL
- MONOCYTE [3]: 1.67%
- NEUTROPHIL [3]: 7.33%
- NUCLEATED RED BLOOD CELLS [3]: 0.33 /100WBC
- PLATELET COUNT [3]: 1165 x10E3/uL
- ALANINE AMINOTRANSFERASE [3]: 46.33 u/L
- ALBUMIN [3]: 4.1 G/DL
- ALKALINE PHOSPHATASE [3]: 367.67 u/L
- ASPARTATE AMINOTRANSFERASE [3]: 75.67 u/L
- BLOOD UREA NITROGEN [3]: 14.33 mg/dL
- CARBON DIOXIDE [3]: 27 mmol/L
- CHLORIDE [3]: 102.67 MEQ/L
- CHOLESTEROL [3]: 80.33 mg/dL
- CREATINE PHOSPHOKINASE [3]: 447.67 u/L
- CREATININE [3]: 0.21 mg/dL
- GLUCOSE [3]: 137.67 mg/dL
- LACTATE DEHYDROGENASE [3]: 242 u/L
- LIPASE [3]: 10.67 u/L
- PHOSPHORUS [3]: 11.97 mg/dL
- POTASSIUM [3]: 6.21 MEQ/L
- SODIUM [3]: 143.67 MEQ/L
- TOTAL BILIRUBIN [3]: 0.2 mg/dL
- TOTAL PROTEIN [3]: 5.87 G/DL
- URIC ACID [3]: 1.37 mg/dL
